Measured values taken from patent US12083093B2, “Composition for preventing or treating cellular senescence-related diseases comprising salinomycin as effective component” (RESEARCH COOPERATION FOUNDATION OF YEUNGNAM UNIVERSITY, priority 2018, dated 2024).

Columns and labels:
[1] = test system: peritoneal fibrosis induced by chlorhexidine gluconate (CHG); test: Peritoneal fibrosis induced by chlorhexidine gluconate (CHG) in mice; type: in vivo, C57BL/6J mice; settings: compared to DMSO group, FIG. 9C, 9D
Description: Animal experiments were conducted with the approval of the Animal Experimental Ethics Committee of Yeungnam University College of Medicine (YUMC-AEC2018-033). Peritoneal fibrosis mice experiments were performed using a model of peritoneal fibrosis induced by chlorhexidine gluconate (CHG) (Yoshio Y et al., Kidney international. 2004).
From the 9th day, 2.5 μl of 10 mM salinomycin (Sal group) or 2.5 μl of DMSO (DMSO group) was diluted in 100 μl phosphate buffer solution and intraperitoneally injected at intervals of 2 days.
As a negative control (NT group), 100 μl of a 15% ethanol phosphate buffer solution was injected intraperitoneally instead of a 0.1% CHG solution. On the 20th day, the mice were sacrificed, the peritoneal tissue was excised, and the tissue was fixed in 4% paraformaldehyde solution.
The tissue fixed in 10% formalin solution was embedded with paraffin and cut into 4 μm to prepare a tissue sample. After removing paraffin from the tissue sample, hematoxylin-eosin staining, trichrome staining, and PAS staining were performed.
The degree of fibrosis was measured by analyzing the degree of collagen staining using the i-Solution™ software program (IMT Inc., Canada) after trichrome staining and the degree of cell senescence in tissue samples was investigated by staining lipofuscin with Sudan black B (Viegas M S, et al., European journal of histochemistry: EJH. 2007). […]

[2] = test system: replicative senescent human fibroblasts (HDF); test: CCK-8 cell survival, replicative senescent human fibroblasts; type: cell-based; settings: replicative senescent cells, increasing concentration of salinomycin; FIG. 2A, 2D
Description: After dispensing 2×10^5 cells in a 100 mm culture dish, they were cultured in a 37° C., 5% CO2 incubator. When the cells grew to 80-90% in the culture dish, the cells were removed by treatment with trypsin-EDTA, and the number of cells was measured, and the cell population doubling time (PDT) was measured.
By successively subculturing the cells in the same process as described above, replication aging was induced. PDT of young fibroblasts was 36 hours, PDT of replicative senescent fibroblasts was 12 days, PDT of young vascular endothelial cells was 24 hours, and PDT of replicative senescent vascular endothelial cells was 7 days.
After each sample was dissolved in DMSO, young cells, replicative senescent cells and senescent cells in which premature aging was induced by treating with doxorubicin were treated with 100 nM salinomycin, 100 nM rapamycin, 100 nM ABT263. […]
(§1) Young cells (1×10^3 cells/well) or senescent cells (2×10^3 cells/well) were dispensed into a 96-well plate, and cultured overnight in a 37° C., 5% CO2 incubator. […] Then, the absorbance was measured at 450 nm using a Microplate reader.
The degree of cell survival was expressed as a relative value for the absorbance of the control group treated with only DMSO as 100%.

[3] = test system: premature senescent vascular endothelial cells (HUVEC) by doxorubicin; test: SAβG activity staining, doxorubicin-induced premature senescent HUVEC; type: cell-based, human; settings: 100 nM, 4 days; compared to DMSO-treated group; p<0.01; FIG. 3A, 3B
Description: (§2) Each cell was treated in a serum-free culture solution containing doxorubicin (0.5 μM) for 4 hours. After washing the cells with a serum-free culture solution, the cells were cultured for 4 days in a culture solution containing 10% FBS, and then cellular aging was confirmed by measuring the level of senescence by staining with senescence-associated beta galactosidase.
(§3) After each sample was dissolved in DMSO, young cells, replicative senescent cells and senescent cells in which premature aging was induced by treating with doxorubicin were treated with 100 nM salinomycin, 100 nM rapamycin, 100 nM ABT263. After incubation for 4 days in a 37° C., 5% CO2 incubator, the degree of cell survival was confirmed by CCK-8 analysis, the degree of cellular aging was confirmed by senescence-associated β-galactosidase (SAβG) staining, p53 and p16 protein expression analysis.
The cells were washed with 1× phosphate buffer solution, and fixed with a phosphate buffer solution containing 3.7% (v/v) paraformaldehyde. After adding 1 mg/ml 5-bromo-4-chloro-3-indolyl-β-D-galactoside, 40 mM citric acid-sodium phosphate (pH 6.0), 5 mM potassium ferricyanide, 5 mM potassium ferrocyanide, 150 mM NaCl, and 2 mM MgCl2 solution, it was reacted at 37° C. for 18 hours. It was stained with eosin as a control stain and cells stained blue in the cytoplasm were identified using an optical microscope. […]

[4] = test system: premature senescent retinal pigmented epithelial cells (ARPE) by doxorubicin; test: CCK-8 cell survival, doxorubicin-induced premature senescent retinal pigmented epithelial cells; type: cell-based, human; settings: 100 nM, 4 days; compared to DMSO-treated group; FIG. 5A, 5B
Description: as §2, §3
as §1, with “incubator. Salinomycin, ABT263 and rapamycin were treated at each concentration, and then incubated for 4 days in a 37° C., 5% CO2 incubator.” for “incubator.”
(§4) The degree of cell survival was expressed as a relative value for the absorbance of the control group treated with only DMSO as 100%. […]

[5] = test system: premature senescent human fibroblasts induced by doxorubicin (HDF); test: CCK-8 cell survival, doxorubicin-induced premature senescent human fibroblasts; type: cell-based; settings: 100 nM, 4 days; compared to DMSO-treated group; p<0.01; FIG. 1C
Description: as §2, §3
as §1, with “incubator. Salinomycin, ABT263 and rapamycin were treated at each concentration, and then incubated for 4 days in a 37° C., 5% CO2 incubator.” for “incubator.”
as §4

CC[C@@H](C(=O)[C@@H](C)[C@@H](O)[C@H](C)[C@@H]1O[C@@H]([C@@H](CC)C(=O)O)CC[C@@H]1C)[C@H]1O[C@]2(C=C[C@@H](O)[C@]3(CC[C@@](C)([C@H]4CC[C@](O)(CC)[C@H](C)O4)O3)O2)[C@H](C)C[C@@H]1C [salinomycin]
thickness of the peritoneal mesothelial cell layer ([1]; 2.5 μl of 10 mM salinomycin in 100 μl phosphate buffer i.p. at 2-day intervals from 9th day): significantly reduced
degree of peritoneal fibrosis ([1]; i.p. at 2-day intervals from 9th day): decreased
cell survival (CCK-8) [2]: no change
SAβG activity staining [3]: significantly decreased
cell survival (CCK-8) [4]: significantly (p<0.01) reduced
cell survival (CCK-8) [5]: decreased significantly
